Assay results published in patent US6541237B1, “A-1,4-glucan lyase and its use in the production of 1.5-androfructose” (Danisco A/S, priority 1994, dated 2003).

Columns and labels:
[1] = Electrochemical oxygen consumption in methyl linoleate emulsion; details: AF 15, 146 and 680 μM; metmyoglobin initiated; 25.0° C.
Experimental: The activity of AF was investigated in a methyl linoleate emulsion as described by Jorgensen and Skibsted (Z. Lebensm. Unters. Forsch. (1993) 196: 423-429) with minor modifications: To 5.00 ml of a 1.33 mM methyl linoleate emulsion in 5.0 mM aqueous phosphate buffer with pH=5.8 and 0.2 w/w % Tween 20 as emulsifier was added AF in the following concentrations: 0, 15, 146 and 680 μM. The oxidation in the system was initiated by addition of 50 μl […] metmyoglobin (MMb) final concentration 0.26 mM. Immediately after initiating the reaction the sample was injected to a thermostated (25.0±0.1° C.) 70 μl closed cell, effectively excluding diffusion of oxygen into the system. The oxygen consumption was measured by a Clark electrode, which was connected to a PC data collection program. The relative oxygen concentration (%) was registered every 30 s.

[2] = system: α-1,4-glucan lyase; experiment: Formation of AF from amylopectin (HPLC), end-product inhibition; format: biochemical; details: equal AF after 30 and 120 min incubation
Experimental: α-1,4-glucan lyase according to the present invention hydrolyses starch to the end-product 1,5-anhydrofructose. The end-product was shown by HPLC, method 2. The enzyme assay contained 500 μl amylopectin (20 mg/ml, dissolved in H2O), 400 μl 0.1 M MES pH 6.3 and 100 μl purified enzyme. The reaction mixture was incubated at 30° C. and the reaction was stopped by boiling after 30 or 120 min incubation. High-molecular oligosaccharides were precipitated by addition of 3 vol abs. ethanol and the sample was centrifuged and freeze-dried as described above. The samples were dissolved in 125 μl H2O and 25 μl were applied on the HPLC column.

[3] = ESR analysis of hydroxyl radical scavenging (Fenton reaction, DMPO spin trap); details: for Peak height of ESR-spectra [120 s] / Peak height of ESR-spectra [300 s]: H2O2 0.17 mM, Fe2+ 4.8 μM
Experimental: Hydroxyl radicals were generated by a Fenton reaction with H2O2 (0.17 mM) and FeSO4 (4.8 μM). The generated radicals were trapped by 5,5-dimethyl-1-pyrroline N-oxide (DMPO, 9.7 mM). AF was added in concentrations of 1.3 mM and 6.3 mM. A water soluble extract of rosemary (Rosmarinus officinalis L.) was analyzed in a concentration of 0.25 mg/ml (in grams equivalent to 1.26 mM AF). Measurements were carried out at room temperature (20±1° C.) after 120 s and repeated for the same reaction mixture after 300 s with the following spectrometer settings: Center field 3475.60 G; sweep width 55 G; microwave power 20 mW; modulation frequency 100 kHz; modulation amplitude 1.01 G; receiver gain 1.00·10^5; conversion time 81.92 ms time constant 163.84 ms and sweep time 83.89 s.
The spin adduct gives rise to a characteristic 1:2:2:1 ESR spectrum. The peak height of the spectrum is proportional to the quantitative amount of generated spin adduct. Addition of both DMPO and AF will set up a competition between the spin trap and AF. A reduction of peak height will indicate a good scavenging activity of AF.

[4] = Induction period of yogurt salad dressing with 50% oil
Source text: For each temperature defined as PF=IP of the oil with added antioxidant/IP of the same oil without added antioxidant

[5] = Oxidation of AF by air; format: physicochemical; details: especially at high temperature, high AF concentration, long exposure
Source text: Catalase is needed to dispel H2O2 formed. H2O2 will oxidize AF into two new compounds which are at present of unknown structure. The other impurities in the AF preparation are the oxidation products of AF. […] Gluconic acid was removed together with the buffer salts by ion exchange chromatography.

[6] = Induction period of 50% mayonnaise in bomb calorimeter; details: +500 ppm in mayonnaise; 80° C., pure O2
Experimental: In the test procedure the anti-oxidants were added to the mayonnaise to provide an anti-oxidant concentration in the order of about 500 ppm. The mayonnaise was then placed in a bomb calorimeter at temperature 80° C. containing pure O2. An induction period to the onset of substantial oxidation of the product is then measured.

[7] = Reduction of 3,5-dinitrosalicylic acid; format: physicochemical

O=C1CO[C@H](CO)[C@@H](O)[C@@H]1O [AF, 1,5-D-anhydrofructose]
oxygen consumption curve [1]: lag-phase is observed
inhibition of enzyme activity by end-product [2]: not inhibited
scavenging activity of hydroxyl radicals ([3]; 1.3 mM AF): no scavenging activity
Peak height of ESR-spectra [120 s] ([3]; 1.3 mM AF): 2634
Peak height of ESR-spectra [300 s] ([3]; 1.3 mM AF): 2545
scavenging activity of hydroxyl radicals ([3]; 6.3 mM AF): peak height is reduced
Peak height of ESR-spectra [120 s] ([3]; 6.3 mM AF): 1781
Peak height of ESR-spectra [300 s] ([3]; 6.3 mM AF): 1900
IP hours (Induction Period) ([4]; 500 ppm in yogurt salad dressing): 39.5 h
PF (Protection Factor) ([4]; 500 ppm, IP with antioxidant / IP without): 1.06
oxidation by air-level of oxygen [5]: can slowly be oxidized
IP hours (Induction Period) [6]: 32,0 hours
reducing agent (antioxidant) activity [7]: can easily reduce 3,5-dinitrosalicylic acid
